According to patent publication US20240398885A1, “FULL LIGHT REPAIR” (Coty Inc., priority 2021, published 2024):

Columns and labels:
[1] = system: normal human keratinocytes; assay: Comet assay with T4 endonuclease V to detect cyclobutane pyrimidine dimers (CPD) after light exposure; assay type: cell-based; conditions: UVB and visible light; creatine included in the compositions
Method: (§1) Experiments were carried out using the protocol discussed in Chamayou-Robert et al. Photodermatol Photoimmunol Photomed. 2021; 00:1-7. Briefly, experiments were performed on normal human keratinocytes. Cells were exposed to either UVB (280-315 nm), UVA (315-400 nm), visible light, blue light (400-500 nm), or infra-red (760 nm-1 mm) for a time to induce DNA damage. Cells were then treated with the compositions indicated in FIGS. 3(a), 3(b) and 4(a), 4(b) and 4(c), respectively and DNA damage was analyzed by using the comet assay (Wischermann et al. Mutat Res. 2007; 630:122-128; Jean et al. Photochem Photobiol. 2007; 74 (3): 417-423; Azqueta et al. Mutagenesis. 2013; 28:271-277; Chamayou-Robert et al. Photoderm Photoimmun. 2021; 00:1-7) with the use of specific enzymes, formamidopyrimidine DNA glycosylase (FPG) or T4 endonuclease V in order to detect oxidized DNA-bases and cyclobutane pyrimidine dimers (CPD) respectively.
(§2) Compositions comprising creatine in an amount of 0.5% w/w, Micrococcus Lysate in an amount of 0.0005% w/w and Arabidopsis Thaliana extract in an amount of 0.0005% w/w were tested in this example.

[2] = system: normal human keratinocytes; assay: Comet assay with formamidopyrimidine DNA glycosylase (FPG) to detect oxidized DNA-bases after light exposure; assay type: cell-based; conditions: UVA, IR and visible light; creatine included in the compositions
Method: as §1, §2

## CN(CC(=O)O)C(=N)N [creatine, Creatine]
[1]
  effect on the DNA repair of CPD damage induced by light: boosting effect
[2]
  effect on the DNA repair of oxidative DNA damage induced by light: boosting effect
